The text below walks through data of patent publication US20110263593A1, “NOVEL IMIDAZO[1,2-a]PYRIMIDINE DERIVATIVES, METHOD FOR THE PREPARATION THEREOF, USE THEREOF AS MEDICAMENTS, PHARMACEUTICAL COMPOSITIONS AND NOVEL USE, IN PARTICULAR AS MET INHIBITORS” (sanofi-aventis, priority 2008, published 2011).

The subject of series [1] is HCT116 cells and MKN45 cells. Nature of the series: Test C: measurement of cell proliferation by 14C-thymidine pulse. The series is classed as cell-based. As to conditions: 14C-thymidine incorporation, 96 h of treatment; cell line not stated (HCT116 and MKN45 in method). As to the method:
C) Test C: Measurement of cell proliferation by ^14C-thymidine pulse
The cells are seeded into Cytostar 96-well plates in 180 μl for 4 hours at 37° C. and 5% CO2: HCT116 cells at a rate of 2500 cells per well in DMEM medium+10% foetal calf serum+1% L-glutamine and MKN45 cells at a rate of 7500 cells per well in RPMI medium+10% foetal calf serum+1% L-glutamine. After these 4 hours of incubation, the products are added in 10 μl as a 20-fold concentrated solution according to the dilution method mentioned for the ELISA. The products are tested at 10 concentrations in duplicate from 10 000 nM to 0.3 nM with an increment of 3.
After treatment for 72 h, add 10 μl of ^14C-thymidine at 10 μCi/ml to obtain 0.1 μCi per well. The ^14C-thymidine incorporation is measured on a Micro-Beta machine (Perkin-Elmer) after 24 hours of pulse and 96 h of treatment.
All the stages of the assay are automated on BIOMEK 2000 or TECAN stations.

Series [2] addresses T1, MET (Homo sapiens, UniProt P08581). Nature of the series: Test B: inhibition of the autophosphorylation of MET, ELISA technique (pppY1230, 1234, 1235) in MKN45 cells. Format: cell-based. Also noted: endogenous in cells; host or cells: MKN45 cells. The following applies: 1 h treatment, phosphoMET ELISA. As for the experimental part:
B) Test B: Inhibition of the Autophosphorylation of MET; ELISA Technique (pppY1230, 1234, 1235)
a) Cell lysates: Seed MKN45 cells into 96-well plates (Cell coat BD polylysine) at 20 000 cells/well in 200 μl in RPMI medium+10% FCS+1% L-glutamine. Leave to adhere for 24 hours in an incubator.
The cells are treated the day after seeding with the products at 6 concentrations in duplicate for 1 h. At least 3 control wells are treated with the same final amount of DMSO.
Product dilution: Stock at 10 mM in pure DMSO—range from 10 mM to 30 μM with an increment of 3 in pure DMSO—intermediate 1/50 dilutions in culture medium and then removal of 10 μl added directly to the cells (200 μl): final range from 10 000 to 30 nM.
At the end of the incubation, carefully remove the supernatant and rinse with 200 μl of PBS. Next, place 100 μl of lysis buffer directly in the wells on ice and incubate at 4° C. for 30 minutes. Lysis buffer: 10 mM Tris HCl, pH 7.4, 100 mM NaCl, 1 mM EDTA, 1 mM EGTA, 1% Triton X-100, 10% glycerol, 0.1% SDS, 0.5% deoxycholate, 20 mM NaF, 2 mM Na3VO4, 1 mM PMSF and cocktail of antiproteases.
The 100 μl of lysates are transferred into a V-bottomed polypropylene plate and the ELISA is performed immediately, or the plate is frozen at −80° C.
b) PhosphoMET ELISA BioSource Kit KH00281
Into each well of the kit plate, add 70 μl of kit dilution buffer+30 μl of cell lysate or 30 μl of lysis buffer for the blanks. Incubate for 2 h with gentle agitation at ambient temperature.
Rinse the wells 4 times with 400 μl of kit washing buffer. Incubate with 100 μl of anti-phospho MET antibody for 1 hour at ambient temperature.
Rinse the wells 4 times with 400 μl of kit washing buffer. Incubate with 100 μl of anti-rabbit HRP antibody for 30 minutes at ambient temperature (except for the wells of chromogen alone).
Rinse the wells 4 times with 400 μl of kit washing buffer. Introduce 100 μl of chromogen and incubate for 30 minutes in the dark at ambient temperature.
Stop the reaction with 100 μl of stop solution. Read without delay at […], 0.1 second on Wallac Victor plate reader.
Target sequence in this assay (P08581 25-1390): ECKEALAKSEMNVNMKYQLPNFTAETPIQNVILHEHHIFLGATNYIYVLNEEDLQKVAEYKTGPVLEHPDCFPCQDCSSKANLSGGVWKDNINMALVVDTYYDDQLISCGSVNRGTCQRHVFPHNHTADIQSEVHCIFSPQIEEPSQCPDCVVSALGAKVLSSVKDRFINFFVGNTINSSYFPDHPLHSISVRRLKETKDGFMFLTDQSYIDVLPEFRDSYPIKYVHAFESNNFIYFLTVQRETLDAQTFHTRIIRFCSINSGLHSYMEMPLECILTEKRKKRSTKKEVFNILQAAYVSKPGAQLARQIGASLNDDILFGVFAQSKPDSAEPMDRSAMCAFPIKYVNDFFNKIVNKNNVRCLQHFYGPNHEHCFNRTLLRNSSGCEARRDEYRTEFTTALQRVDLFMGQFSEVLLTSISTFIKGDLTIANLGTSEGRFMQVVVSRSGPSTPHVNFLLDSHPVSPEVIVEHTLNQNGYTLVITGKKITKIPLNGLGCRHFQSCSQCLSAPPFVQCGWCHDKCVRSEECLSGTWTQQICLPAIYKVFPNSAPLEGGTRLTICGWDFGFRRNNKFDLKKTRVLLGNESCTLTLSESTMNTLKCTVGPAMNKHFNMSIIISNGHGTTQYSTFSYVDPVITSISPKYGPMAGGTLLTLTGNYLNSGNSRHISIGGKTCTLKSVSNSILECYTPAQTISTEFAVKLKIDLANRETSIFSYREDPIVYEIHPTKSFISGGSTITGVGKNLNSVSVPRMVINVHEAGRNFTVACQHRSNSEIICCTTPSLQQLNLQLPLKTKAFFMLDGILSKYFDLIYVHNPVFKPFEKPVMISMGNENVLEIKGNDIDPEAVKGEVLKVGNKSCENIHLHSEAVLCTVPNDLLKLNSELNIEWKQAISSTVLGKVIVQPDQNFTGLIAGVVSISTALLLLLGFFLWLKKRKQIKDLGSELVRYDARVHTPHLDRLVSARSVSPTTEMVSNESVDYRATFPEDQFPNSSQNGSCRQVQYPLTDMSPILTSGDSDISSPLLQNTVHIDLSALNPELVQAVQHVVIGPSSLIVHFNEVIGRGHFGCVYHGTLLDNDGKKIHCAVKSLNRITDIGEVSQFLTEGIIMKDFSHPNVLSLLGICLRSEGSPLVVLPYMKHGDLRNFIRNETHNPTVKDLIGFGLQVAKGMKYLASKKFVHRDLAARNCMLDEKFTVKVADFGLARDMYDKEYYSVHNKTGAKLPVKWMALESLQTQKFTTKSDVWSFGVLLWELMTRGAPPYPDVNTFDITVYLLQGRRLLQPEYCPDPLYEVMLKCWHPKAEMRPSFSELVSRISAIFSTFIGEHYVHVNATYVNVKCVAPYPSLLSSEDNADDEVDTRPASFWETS

Series [3] addresses T1, MET. Nature of the series: Test A: HTRF MET assay in 96-well format. Format: biochemical. Details: The His-Tev-MET (956-1390) recombinant DNA in pFastBac (Invitrogen) is transfected into insect cells; His (N, cleaved yes); Tev cleavage site (N, cleaved yes); made in house; host or cells: SF21 insect cells (baculovirus, pFastBac). The following applies: 5 nM MET, 10 μM ATP. As to the method: I) Expression and Purification of MET, Cytoplasmic Domain
The His-Tev-MET (956-1390) recombinant DNA in pFastBac (Invitrogen) is transfected into insect cells and, after several viral amplification stages, the final baculovirus stock is tested for the expression of the protein of interest.
After infection for 72 h at 27° C. with the recombinant virus, the SF21 cell cultures are harvested by centrifugation and the cell pellets are stored at −80° C.
The cell pellets are resuspended in lysis buffer (buffer A [50 mM HEPES, pH 7.5, 250 mM NaCl, 10% glycerol, 1 mM TECP]; + cocktail of protease inhibitors, Roche Diagnostics, without EDTA, ref. 1873580), stirred at 4° C. until the mixture is homogeneous and then lysed mechanically using a “Dounce” type apparatus.
After centrifugation, the lysis supernatant is incubated for 2 h at 4° C. with nickel chelate resin (His-Trap 6 Fast Flow™, GE HealthCare). After washing with 20 volumes of buffer A, the suspension is packed into a column, and the proteins are eluted with a gradient of buffer B (buffer A+290 mM imidazole).
The fractions comprising the protein of interest for the purpose of electrophoretic analysis (SDS PAGE) are combined, concentrated by ultrafiltration (10 kDa cut-off) and injected onto an exclusion chromatography column (Superdex™ 200, GE HealthCare) equilibrated in buffer A.
After enzymatic cleavage of the histidine tag, the protein is reinjected onto a new IMAC nickel chelate chromatography column (His-Trap 6 Fast Flow™, GE HealthCare) equilibrated in buffer A. The fractions eluted with a gradient of buffer B and comprising the protein of interest after electrophoresis (SDS PAGE) are finally combined and conserved at −80° C.
For the production of autophosphorylated protein, the previous fractions are incubated for 1 h at ambient temperature after the addition of 2 mM ATP, 2 mM MgCl2, and 4 mM Na3VO4. After the reaction has been stopped with 5 mM of EDTA, the reaction mixture is injected onto a HiPrep desalifying column (GE HealthCare) preequilibrated in buffer A+4 mM Na3VO4, and the fractions comprising the protein of interest (SDS PAGE analysis) are combined and stored at −80° C. The degree of phosphorylation is verified by mass spectrometry (LC-MS) and by peptide mapping.
A) Test A: HTRF MET Assay in 96-Well Format
MET at a final concentration of 5 nM is incubated in a final volume of 50 μl of enzymatic reaction in the presence of the test molecule (for a final concentration range of from 0.17 nM to 10 μM, 3% DMSO final concentration) in 10 mM MOPS buffer, pH 7.4, 1 mM DTT, 0.01% Tween 20. The reaction is initiated with the substrate solution to obtain final concentrations of 1 μg/ml poly-(GAT), 10 μM ATP and 5 mM MgCl2. After incubation for 10 min at ambient temperature, the reaction is stopped with a 30 μl mix so as to obtain a final solution of 50 mM Hepes, pH 7.5, 500 mM potassium fluoride, 0.1% BSA and 133 mM EDTA in the presence of 80 ng of streptavidin 61SAXLB Cis-Bio Int. and 18 ng of anti-phosphotyrosine Mab PT66-Europium Cryptate per well. After incubation for 2 hours at ambient temperature, the reading is taken at 2 wavelengths, 620 nm and 665 nm, on a reader for the TRACE/HTRF technique and the % inhibition is calculated from the 665/620 ratios.
Target sequence in this assay (P08581 956-1390): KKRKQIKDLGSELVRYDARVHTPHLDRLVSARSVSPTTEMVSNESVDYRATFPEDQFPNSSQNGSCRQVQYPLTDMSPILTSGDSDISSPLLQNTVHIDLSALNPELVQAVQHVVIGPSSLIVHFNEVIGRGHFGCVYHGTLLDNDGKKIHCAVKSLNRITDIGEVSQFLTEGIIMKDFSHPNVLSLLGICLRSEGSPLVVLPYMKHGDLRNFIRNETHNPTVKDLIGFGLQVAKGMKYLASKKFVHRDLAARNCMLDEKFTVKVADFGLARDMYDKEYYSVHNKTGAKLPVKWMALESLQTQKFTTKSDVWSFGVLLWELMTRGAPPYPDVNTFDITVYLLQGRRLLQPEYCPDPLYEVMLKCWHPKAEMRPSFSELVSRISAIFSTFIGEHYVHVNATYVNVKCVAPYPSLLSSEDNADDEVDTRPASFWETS

Some results are limits rather than exact numbers.

Regarding `O=C(NCCN1CCOCC1)Nc1nc2ccc(Sc3cnc4ncccn34)cc2s1` [Example 4, 1-[6-(imidazo[1,2-a]pyrimidin-3-ylsulphanyl)-1,3-benzothiazol-2-yl]-3-[2-(morpholin-4-yl)ethyl]urea], the melting point is > 260 °C. The IC50 in series [1] is < 1000 nM. Moreover, the IC50 on MET [2] is < 100 nM. At MET [3], the IC50 was < 100 nM.
In the case of `CC(C)(C)OC(=O)NCC(=O)Nc1nc2ccc(Sc3cnc4ncccn34)cc2s1` [Example 11, 2-methylpropan-2-yl(2-{[6-(imidazo[1,2-a]pyrimidin-3-ylsulphanyl)-1,3-benzothiazol-2-yl]amino}-2-oxoethyl)carbamate], the melting point was > 260 °C. In series [1], the IC50 was < 1000 nM. In addition, the IC50 on MET [2] was < 500 nM. For the same compound, on MET [3], the IC50 was < 100 nM.
